Test results as given in PMC9879939, “Synergy of ruthenium metallo-intercalator, [Ru(dppz)2(PIP)]^2+, with PARP inhibitor Olaparib in non-small cell lung cancer cells” (Scientific Reports, 2023).
Values joined by “and” are separate entries in the source; they are usually repeats but may differ in a detail not shown here. Equal values may be shown once.

Experiments:
[1] = system: A549, H1975 and T24 cells; assay: MTT assay, summary statements over the cancer cell lines; type: cell-based, human
Description: (§1) Cells were seeded in 96-well plates at 5 × 10^3 cells/well and allowed to adhere overnight. […] For drug combination treatment, cells were treated with concentration gradient of Ru-PIP (3.125–100 µM) in combination with Olaparib (5 or 10 µM). After 24, 48 or 72 h incubation, 0.5 mg/ml thiazolyl blue tetrazolium bromide (MTT) dissolved in 1X PBS was added to each well and cells were incubated at 37 °C for 4 h. 100 µl of DMSO was added to each well to solubilize the reduced purple formazan crystals formed. Next, the absorbance at 570 nm (630 nm as reference wavelength) was measured using a microplate reader. The half maximal inhibitory concentration (IC50) for each compound was determined using GraphPad Prism software. Additionally, selectivity indices (SI) were determined by the ratio between IC50 of normal cells and that of cancer cells.

[2] = system: MRC5 normal human lung fibroblasts; assay: MTT assay (cell viability); type: cell-based; details: max tested 100 μM, combinations: Ru-PIP gradient with fixed Olaparib
Description: as §1

A549 cells [3] = assay: Wound healing assay; type: cell-based, human
Description: Lung cancer cells were seeded at density of 5 × 10^5 cells/well in a 6-well plate and were incubated in the incubator until a confluent monolayer of cells formed. After serum-starved for 4 h, a straight scratch was made in each well with a sterile 200 µl pipette tip, solution was removed, and each well was washed with 1X PBS twice. Cells were treated with Ru-PIP (25 µM), Olaparib (5 µM) or both. Cells migration in the wound scratch area was photographed at 0, 24, 48 and 72 h timepoints. Images were photographed at 10 × magnification using a camera attached microscope and were analyzed using ImageJ software. The percentage of wound scratch closure was determined by measuring the reduction in the wound area at each time point by comparing to 0 h (100%).

A549 cells [4] = assay: Apoptosis annexin V-FITC assay; type: cell-based, human
Description: Lung cancer cells were seeded in 6-well plate at 1 × 10^5 cells/well and allowed to adhere overnight. Cells were treated with Ru-PIP (25 µM), Olaparib (5 µM) or both. After 24 or 48 h incubations, cells were harvested, washed with 1X PBS twice and 500 µl of 1X binding buffer was added to the samples. After, the samples were incubated with 5 µl Annexin V-FITC (Invitrogen) for 20 min at RT. Prior to flow cytometric analysis, 5 µl of PI was added. Samples were acquired was analyzed using NovoCyte flow cytometer and NovoExpress software. For each sample, a minimum of 10,000 cells were counted and analyzed.

H1975 lung cancer cells = assay: MTT assay (cell viability; CI and SI derived from it); type: cell-based, human; details: for IC50: H1975, max tested 100 μM, combinations: Ru-PIP gradient with fixed Olaparib; for Selectivity Index (SI) = IC50 normal cells/IC50 cancer cells: MRC5 vs H1975
Description: as §1
(§2) Based on the data obtained from MTT assay, combination indices (CI) were determined using Calcusyn and CompuSyn software (Biosoft, Cambridge, UK). This is based on the established drugs combination method by Chou and Talalay[30],[31]. CI values indicate the type of drugs interaction in which CI < 0.9 indicates synergism, CI = 0.9–1.0 indicates additive and CI > 1.0 indicates antagonism. GraphPad Prism software was used to generate a three-color scale based on CI values obtained, where synergism is represented by green, additive by yellow, and antagonism by red in which the colors of each CI value were interpolated in between these constraints accordingly.

A549 lung cancer cells = assay: as above; type: cell-based, human; details: for IC50: A549, max tested 100 μM, combinations: Ru-PIP gradient with fixed Olaparib; for Selectivity Index (SI) = IC50 normal cells/IC50 cancer cells: MRC5 vs A549
Description: as §1, §2

T24 bladder cancer cells = assay: as above; type: cell-based, human; details: for Selectivity Index (SI) = IC50 normal cells/IC50 cancer cells: MRC5 vs T24; for IC50: T24, max tested 100 μM, combinations: Ru-PIP gradient with fixed Olaparib
Description: as §1, §2

A549 cells [5] = assay: Cell cycle analysis (PI staining, flow cytometry); type: cell-based, human; details: Ru-PIP 25 µM, 24 h
Description: Lung cancer cells were seeded in 6-well plate at density of 1 × 10^5 cells/well and allowed to adhere overnight. Cells were treated with Ru-PIP (25 µM), Olaparib (5 µM) or both. After 24 or 48 h incubations, cells were harvested, washed with 1X PBS twice, and fixed with ice-cold 70% ethanol at least overnight at − 20 °C. The fixed cells were collected by centrifugation at 1,000 rpm for 5 min and the resulting pellets were washed with 1X PBS twice. The samples were resuspended in 500 µl PBS and treated with 5 µl RNase A solution (10 mg/ml) for 15 min at RT. After incubation, the samples were stained with 2 µl of propidium iodide (PI) solution (5 mg/ml) at RT, in the dark. Samples were acquired, and cell cycle distribution was analyzed using NovoCyte flow cytometer and NovoExpress software. For each sample, a minimum of 10,000 cells were counted and analyzed.

zebrafish embryos = assay: Acute toxicity test on zebrafish embryos (OECD Test No. 236); details: zebrafish embryos
Description: (§3) The newly fertilized eggs at less than 1 hpf (hours post fertilization) were collected, washed with deionized water and incubated at RT (28 ± 1 °C) in Danio-SprintM embryo media. […] Untreated control consisting of Danio-SprintM embryo media containing 0.1% DMSO. 24 embryos were used in total for each concentration per treatment of two independent experiments (n = 24). The zebrafish embryos development was observed and imaged using a light microscope attached to a digital camera at 24, 48, 72 and 96 hpf (hours post fertilization). Four lethal endpoints were evaluated including coagulated embryos, lack of somite formation, non-detachment of the tail and lack of heartbeat. All these characteristics were recorded every 24 hpf, except heartbeat, which is visible after 48 hpf. […] Hatching which is also considered as a sensitive endpoint toxicity parameter was also observed in which hatching normally occurs at 48 to 72 hpf.

A549 spheroids = assay: Spheroids growth inhibition studies; type: cell-based, human; details: Ru-PIP 25 µM; for structural integrity of pre-formed spheroids: Olaparib 5 µM or both, 12 days after treatment initiation
Description: Spheroids establishment was attempted for A549 lung cancer cells using hanging drop method. 20 µL of cell suspension containing 2000, 4000, 6000, 8000 and 10,000 cells were dropped onto the surface of petri dish lid and incubated at 37 °C, such that each drop will contain single spheroid. After three days of incubation, each spheroid formed was transferred onto agarose-coated (50 µL, 0.6%) 96-well plates containing 80 µL growth media and further incubated for 15 days at 37 °C, such that each well contained a single spheroid. Formation of spheroids was observed and imaged every three days using a light microscope with a 4 × objective lens connected to a digital camera. During growth, 50% of the media was replaced every three days. The growth in volume of each spheroid was determined according to a published method. At least six spheroids were grown per seeding density for each independent experiment.
Spheroids were grown as described initially. Initial cell seeding density was chosen such that each spheroid reached a diameter of approximately 400 μm after three days (4,000 cells/well for A549 cells). After spheroids formation, spheroids were incubated with Ru-PIP (25 µM), Olaparib (5 µM) or both for a period of 12 days. The structural integrity of spheroids upon treatment was observed and imaged for every three days using a light microscope with a 4 × objective lens connected to a digital camera, and the volume of each spheroid was measured according to a published method. Prior to imaging, 50% of treatment-containing medium was replaced (every three days). At least six spheroids were grown per treatment for each independent experiment.

in vivo = details: zebrafish, in vivo
Description: as §3

[6] = 24 h, Ru-PIP 25 µM or Olaparib 5 µM

## [Ru+2].c1ccc(-c2nc3c4cccnc4c4ncccc4c3[nH]2)cc1.c1ccc2nc3c4cccnc4c4ncccc4c3nc2c1.c1ccc2nc3c4cccnc4c4ncccc4c3nc2c1 [Ru-PIP, [Ru(dppz)2(PIP)]^2+]
[1]; 72 h treatments, A549, H1975 and T24 cells vs normal MRC5 cells
  selectivity indices (SI): > 1.6
[2]; 24 h
  IC50: > 100 µM
[2]; 48 h
  IC50: 91 ± 7.9 µM
[2]; 72 h
  IC50: > 100 µM
A549 cells [3]; Ru-PIP 25 µM, time point not stated (untreated 100% closed at 72 h)
  wound closure: 88%
A549 cells [4]; [6]
  levels of apoptotic cells: comparable levels of apoptotic cells with untreated control
A549 cells [4]; 48 h, Ru-PIP 25 µM alone or with Olaparib 5 µM
  levels of apoptotic cells: increase in apoptotic cells was observed
H1975 lung cancer cells; 24 h
  IC50: > 100 µM
H1975 lung cancer cells; 48 h
  IC50: 95.1 ± 2.9 µM
  Selectivity Index (SI) = IC50 normal cells/IC50 cancer cells: 0.9
H1975 lung cancer cells; 72 h
  IC50: 59.4 ± 11.6 µM
  Selectivity Index (SI) = IC50 normal cells/IC50 cancer cells: >1.6
A549 lung cancer cells; 24 h
  IC50: 34.5 ± 10.5 µM
  Selectivity Index (SI) = IC50 normal cells/IC50 cancer cells: >2.8
A549 lung cancer cells; 48 h
  IC50: 19.4 ± 3.5 µM
  Selectivity Index (SI) = IC50 normal cells/IC50 cancer cells: 4.6
A549 lung cancer cells; 72 h
  IC50: 11.4 ± 0.3 µM
  Selectivity Index (SI) = IC50 normal cells/IC50 cancer cells: > 8.7
T24 bladder cancer cells; 24 h
  Selectivity Index (SI) = IC50 normal cells/IC50 cancer cells: >2.2
  IC50: 45.1 ± 6.2 µM
T24 bladder cancer cells; 48 h
  Selectivity Index (SI) = IC50 normal cells/IC50 cancer cells: 4.0
  IC50: 22.7 ± 2.8 µM
T24 bladder cancer cells; 72 h
  Selectivity Index (SI) = IC50 normal cells/IC50 cancer cells: >6.3
  IC50: 15.8 ± 2.9 µM
A549 cells [5]
  increase in G1 phase compared to control: 16.1%
Zebrafish embryos; 50 mg/L Ru-PIP alone, 96 hpf
  embryos showing yolk sac edema: 33%
Zebrafish embryos; 100 mg/L
  embryos' hatching prevented: ~100%
Zebrafish embryos; 96 h treatment
  96 h LC50: 57.5 µg/mL and 55.5 µg/mL
Zebrafish embryos; < 25 mg/L
  survival and morphological changes of embryos: the embryos survive without any morphological defects
A549 spheroids; 12 days
  spheroid growth: prevented spheroid growth
A549 spheroids
  structural integrity of pre-formed spheroids: remained structurally intact

## N.N.[Cl][Pt][Cl] [Cisplatin, cis-diamminedichloroplatinum(II)]
[2]; 24 h
  IC50: 13.5 ± 2.4 µM
[2]; 48 h
  IC50: 9.5 ± 1.2 µM
[2]; 72 h
  IC50: 7.4 ± 2 µM
H1975 lung cancer cells; 24 h
  IC50: 26.6 ± 9.9 µM
H1975 lung cancer cells; 48 h
  IC50: 20 ± 6.7 µM
H1975 lung cancer cells; 72 h
  IC50: 13.5 ± 5.7 µM
A549 lung cancer cells; 24 h
  IC50: 6.6 ± 2 µM
A549 lung cancer cells; 48 h
  IC50: 4.8 ± 0.5 µM
A549 lung cancer cells; 72 h
  IC50: 2.9 ± 1.2 µM
T24 bladder cancer cells; 24 h
  IC50: 59.6 ± 7 µM
T24 bladder cancer cells; 48 h
  IC50: 20.8 ± 7.2 µM
T24 bladder cancer cells; 72 h
  IC50: 7.3 ± 1.1 µM

## O=C(c1cc(Cc2n[nH]c(=O)c3ccccc23)ccc1F)N1CCN(C(=O)C2CC2)CC1 [Olaparib]
[1]; Homo sapiens, 72 h, A549, H1975 and T24 cells together, read-out: 72 h IC50 on the tested cancer cells
  IC50: > 71.7 µM
[2]; Homo sapiens, 24 h
  IC50: > 100 µM
[2]; Homo sapiens, 48 h
  IC50: > 100 µM
[2]; Homo sapiens, 72 h
  IC50: > 100 µM
A549 cells [3]; Olaparib 5 µM
  impact on cell migration: negligible impact on cell migration
A549 cells [4]; [6]
  levels of apoptotic cells: comparable levels of apoptotic cells with untreated control
H1975 lung cancer cells; Homo sapiens, NCI-H1975, 24 h
  IC50: > 100 µM
H1975 lung cancer cells; Homo sapiens, NCI-H1975, 48 h
  IC50: > 100 µM
H1975 lung cancer cells; Homo sapiens, NCI-H1975, 72 h
  IC50: 71.7 ± 11.8 µM
H1975 lung cancer cells; 72 h
  Selectivity Index (SI) = IC50 normal cells/IC50 cancer cells: >1.3
A549 lung cancer cells; Homo sapiens, 24 h
  IC50: > 100 µM
A549 lung cancer cells; Homo sapiens, 48 h
  IC50: > 100 µM
A549 lung cancer cells; Homo sapiens, 72 h
  IC50: > 100 µM
T24 bladder cancer cells; Homo sapiens, 24 h
  IC50: > 100 µM
T24 bladder cancer cells; Homo sapiens, 48 h
  IC50: > 100 µM
T24 bladder cancer cells; Homo sapiens, 72 h
  IC50: > 100 µM
A549 cells [5]; Olaparib 5 µM or both
  cell cycle profile: comparable cell cycle profile with the untreated control
In vivo
  LC50 at 96 h: > 100 µg/mL
Zebrafish embryos; > 25 mg/L
  morphological changes of embryos: substantial morphological abnormalities of pericardial edema, yolk sac edema and spinal deformity
A549 spheroids
  structural integrity of pre-formed spheroids: remained structurally intact
